# Data published in US7943583B2, “2-O-(β-D-glucopyranosyl) ascorbic acid, process for its production, and foods cosmetics containing compositions comprising it” (Suntory Holdings Limited, priority 2001, dated 2011).
# Where two headings read alike, the source gives them in different places.
# How the values were obtained:
# [1] = Intestinal absorption in rat: portal vein plasma concentrations after oral administration; format: in vivo
# Experimental: A solution of 2-O-(β-D-glucopyranosyl)ascorbic acid in Milli-Q Ultrapure Water (Millipore Corporation) (100 mg/4 mL) was orally administered at a dose of 100 mg/kg by using a feeding tube to overnight-starved and awake 10-week-old male Wistar rats (n=3) purchased from Nihon Charles River Co. After 0, 0.5, 2 and 4 hours, heparinized blood samples were collected from the portal vein and the plasma from each sample was separated by centrifugation (6000×g, 10 min). After addition of an equivalent of ice-cooled 10% metaphosphoric acid (containing 40 mM deferoxamine mesylate), the mixture was centrifuged (10,000×g, 10 min) to obtain protein-removed portal vein plasma, of which the unconverted 2-O-(β-D-glucopyranosyl)ascorbic acid and ascorbic acid concentrations were measured by high performance liquid chromatography (LC-10Ai System by Shimadzu Co., Ltd., Column: Inertsil ODS-3 (GL Science Co., Ltd., 3.0×150 mm, 5 μm), mobile phase: 15% MeOH-17 mM KH2PO4/H3PO4 (pH 3.5)-5 mM tetra-n-amylammonium bromide, flow rate: 0.3 mL/min, column temperature: 35° C., detection wavelength: 254 nm). The unconverted 2-O-(β-D-glucopyranosyl)ascorbic acid and the metabolite (ascorbic acid) were found present in maximum amounts 30 minutes after administration.
# [2] = system: normal human dermal fibroblasts (NHDF); experiment: Collagen synthesis by normal human dermal fibroblasts ([3H]proline incorporation, collagenase-digestible); format: cell-based; conditions: 100 μM, 48 hours, compared to 2-O-(α-D-glucopyranosyl)ascorbic acid or ascorbic acid
# Experimental: Normal human dermal fibroblast cells (NHDF) were plated onto a 100 mm diameter dish at a cell count of 370,000. After 16 hours of culture, there was added 100 μM of 2-O-(β-D-glucopyranosyl)ascorbic acid dissolved in DMEM medium containing 10% FBS and 40% of 24-hour serum-free NHDF culture solution. After another hour, 0.12 mL (120 μCi) of L-[2,3-^3H]proline was added and culturing was continued for 48 hours. The medium was removed after culturing, and the cell sheet was rinsed 4 times with PBS. The cells were then treated with trypsin, lysed with an alkali, and then neutralized to obtain the intracellular protein. The fraction obtained by digesting this protein with Clostridium collagenase was measured in terms of radioactivity with a liquid scintillation counter using Scintisol EX-H. The intracellular protein fraction not treated with collagenase was also measured in terms of radioactivity using a liquid scintillation counter. The difference in radioactivities was calculated and recorded as the collagen synthesizing activity. For comparison, 2-O-(α-D-glucopyranosyl)ascorbic acid and ascorbic acid were examined in a similar manner, and the results are also shown in FIG. 7.
# [3] = system: normal human dermal fibroblast (NHDF) cells; experiment: Population doubling level (PDL) of normal human dermal fibroblasts; format: cell-based; conditions: 100 μM
# Experimental: Normal human dermal fibroblast (NHDF) cells were plated onto a 100 mm diameter dish at a cell density of 370,000. After 16 hours of culture in DMEM supplied with 10% FBS, the medium was replaced by DMEM fortified with 10% FBS and supplied with 40% of a domestic-conditioned medium containing 100 μM of 2-O-(β-D-glucopyranosyl)ascorbic acid. The cultivation was continued for 46-188 hours until cells reached a near confluent state. The domestic-conditioned medium was prepared by separately culturing NHDF cells to the state of near confluency, which was further cultivated in a serum-free medium for 24 hours, and collecting the culture supernatant, which was stored in a refrigerator and used within 3 days. In connection with the above 46-188 hours of cultivation, the medium was changed every 3 days with fresh DMEM fortified with 10% FBS and supplied with 40% of the domestic-conditioned medium containing 100 μM of 2-O-(β-D-glucopyranosyl)ascorbic acid. When medium change was made, the cell number in the old culture medium was counted and used in the PDL assessment. The number of cells adhering onto the plate was counted by Coulter counter. PDL value at the start of culture was taken as 0, and PDL values thereafter were calculated by the equation: PDL=log2(recovered cell number/seeded cell number). […]
# [4] = system: human skin epidermal keratinocytes (HaCaT); experiment: Protecting effect against cell death of HaCaT induced by UVB irradiation (WST-1 viable cell count); format: cell-based; conditions: compared to ascorbic acid or 2-O-(α-D-glucopyranosyl)ascorbic acid at the same concentration; added at 20-100 μM 2 h before UVB 35 mJ/cm^2
# Experimental: The human skin epidermal keratinocyte line HaCaT (a cell line provided by Professor Fusenig of Heidelberg University) was plated on a 24-well plate at 10,000 cells/well with Dulbecco's modified Eagle medium (DMEM) containing 10% fetal bovine serum (FBS) and after 18 hours, the cells were irradiated with UVB (maximum wavelength: 312 nm) at 35 millijoules/square centimeter (mJ/cm^2). Two hours before irradiation, 2-O-(β-D-glucopyranosyl)ascorbic acid was added at 20-100 μM and removed with rinsing just before irradiation. The irradiation was performed in PBS in the absence of chemical agents, after which culturing was continued in DMEM containing 10% FBS, and the viable cell count was determined 24 hours after irradiation by measuring the mitochondrial dehydrogenase activity using 2-(4-iodophenyl)-3-(4-nitrophenyl)-5-(2,4-disulfophenyl)-2H-tetrazolium monosodium salt (WST-1). For comparison, 2-O-(α-D-glucopyranosyl)ascorbic acid and ascorbic acid were examined in a similar manner, and the results are also shown in FIG. 5.
# NHDF cells = experiment: Reduction speed of telomere lengths (TRF Southern blot) in NHDF cells; format: cell-based, human
# Experimental: The TRFs were separated by electrophoresis and the length of the telomere DNA was quantified with a labeled probe specifically binding to telomere. Details of the method used in the study is described in Life Sciences, Vol. 63, No. 11, 935-948 (1998).
# The fibroblast cells (NHDF) from human skin epidermis were dispersed by treatment with trypsin, added into a 1.5 ml tube at 10^6/tube, centrifuged for 2 min. at 1,200 rpm at 4° C., and the supernatant was discarded. The pellet was washed two times with 1 ml RNase free PBS(−), the supernatant was removed as sufficiently as possible, and the cells were stored at −80° C. The frozen sample was restored to ambient temperature, genomic DNA was extracted by use of IsoQuick Nucleic Acid Extraction Kit (ORCA Research Inc.). The extracted DNA was dissolved in 10 mM Tris-HCl, 1 mM EDTA, pH8.0 to be stored at 4° C. The DNA content was determined by the fluorescent reader (Cytofluor 2350, Millipore Corporation) with the DNA binding reagent Hoechist 33258, and TRF was prepared by restricted digestion with HinfI treatment. The restricted digestion was carried out as follows. There were added into a 1.5 ml tube, 2 μl of 10× H buffer (TaKaRa, Kyoto), the solution of extracted genomic DNA (2 μg), sterilized water to make up 19 μl, and finally 1 μl of HinfI (6 U/μl, TaKaRa, Kyoto). […]
# [5] = system: human skin epidermal keratinocytes (HaCaT); experiment: Intracellular ascorbic acid concentration in human skin epidermal keratinocytes (HPLC); format: cell-based; conditions: 100 μM, 3-24 hours after addition, compared with 2-O-(α-D-glucopyranosyl)ascorbic acid and ascorbic acid
# Experimental: Human skin epidermal keratinocyte cells HaCaT were plated onto a 100 mm diameter dish at a cell count of 370,000. After 16 hours of culturing, there was added 100 μM of 2-O-(β-D-glucopyranosyl)ascorbic acid dissolved in DMEM containing 10% FBS and 40% of 24-hour serum-free HaCaT culture solution. The medium was removed 3-24 hours after the addition, rinsing was performed twice with ice-cooled PBS, and the cell sheet was treated with trypsin to obtain the separated cells. These were suspended in PBS containing 50 μM dithiothreitol (DTT) and rinsed 3 times by centrifugation. The cells received freeze-thawing twice were crushed with a Potter-type teflon homogenizer for 30 sec on the ice. The cell homogenate was centrifuged at 5° C., and supernate thus separated was stored on the ice. The supernatant was subjected to treatment with Molcut (product of Nihon Millipore Co., Ltd.; High-pressure ultrafiltration unit, nominal molecular weight limit (NMWL): 10,000, polyethersulfone membrane), and the amount of intracellular ascorbic acid was analyzed by high performance liquid chromatography (AS-8020 System by Toso Co., Ltd., column: Shodex ODSpak (4.6×150 mm, product of Showa Denko Co., Ltd.), mobile phase: 0.1 M KH2PO4—H3PO4 (pH 2.35)-0.1 mM EDTA-2 Na, flow rate: 1.5 mL/min) using a coulometric electrochemical detector (ESA Co., Bedford, Mass., 200 mV). […]
# [6] = rats; cited from earlier work
smiles,measurement,setting,value
O=C1O[C@H]([C@@H](O)CO)C(O)=C1O[C@@H]1O[C@H](CO)[C@@H](O)[C@H](O)[C@H]1O [2-O-(β-D-glucopyranosyl)ascorbic acid],time of maximum amount of unconverted 2-O-(β-D-glucopyranosyl)ascorbic acid in portal vein plasma,"[1]; Wistar rats, oral 100 mg/kg",30 min
same,unconverted form in the blood upon oral ingestion,"[1]; rats, oral",detected in the blood
same,collagen synthesis activity,[2],increased activity
same,PDL of NHDF greater than in the absence of ascorbic acid derivative (PDL 20.1),[3],2.62 times
same,effect of preventing cell death of HaCaT induced by UVB irradiation,[4],stronger effect of preventing cell death
same,average reduction speed of telomere length,NHDF cells; 225 bp/PDL in the absence of any ascorbic acid derivative,94 bp/PDL
same,shortening of the speed of the telomere length to reduce to the critical length,NHDF cells; versus no ascorbic acid derivative,approximately 42%
same,intracellular ascorbic acid concentration,[5],maintained at a higher concentration for the longest time
O=C1O[C@H]([C@@H](O)CO)C(O)=C1O[C@H]1O[C@H](CO)[C@@H](O)[C@H](O)[C@H]1O [2-O-(α-D-glucopyranosyl)ascorbic acid],unconverted form in the blood upon oral ingestion,[6],no detection of the unconverted form in the blood
